Results from article PMC12362796, “Bilirubin Targeting WNK1 to Alleviate NLRP3‐Mediated Neuroinflammation” (Advanced Science, 2025).
pEC50, pKd: −log10 of the molar value.

What was measured:
hWNK3 = biological target: T1, hWNK3 (Homo sapiens, UniProt Q9BYP7); assay: MST, WNK kinase family member WNK3; assay type: binding
T1 construct: host or cells: HEK293T
Procedure: (§1) To validate the direct binding of bilirubin to WNK1, we performed a Microscale Thermophoresis (MST) analysis, which assesses the binding capacity of a compound by measuring the movement of proteins over a microscopic temperature gradient.^[ [26], [27] ^] We overexpressed full‐length WNK1 fused with Green Fluorescent Protein (GFP) in HEK‐293 cells, incubated the lysates with bilirubin at varying dilutions, and subjected them to precise MST measurements in capillaries. […] Furthermore, biliverdin, a structurally similar intermediate product generated before bilirubin formation, was used as a control.
(§2) All WNK1 clones were derived from the original untagged hWNK1 cDNA (NM_018979), which was modified and subcloned into the pcDNA3.1, referred to as “full‐length WNK1” throughout this study. Truncated constructs, including 1–190aa, 191–491aa, 1–491aa, and 491–2382aa fragments, were generated by PCR using the full‐length template and subsequently ligated into linearized pcDNA3.1 vectors. WNK2 was obtained from Addgene Plasmid #24569, and WNK3 was obtained from Addgene Plasmid #81723. Both were subjected to base modifications and cloned into pcDNA3.1. The WNK4 clone was derived from hWNK4 cDNA (NM_032387.5), modified, and subcloned into the pCMV3‐C‐GFPSpark vector.
(§3) In HEK293T cells, proteins tagged with green fluorescent protein (GFP) were expressed. […]

[1] = biological target: T2, point mutations of WNK1 (1–491) (Homo sapiens, UniProt Q9H4A3, F356A); assay: MST, EGFP-tagged point mutations of WNK1 (1–491); assay type: binding; conditions: WNK1-N F356A
T2 construct: EGFP‐tagged point mutations of WNK1 (1–491) (15 min) in lysates; expressed in transfected cells; host or cells: HEK293T
Description: (§4) Molecular docking identified several crucial amino acid residues within binding site 1 of the kinase domain for the binding of WNK1 and bilirubin. These residues included Thr301 (T301), Met304 (M304), Lys351 (K351), and Phe356 (F356) (Figure 3C). To investigate this further, we constructed WNK1‐N mutants by replacing these residues with alanine (A). […] This finding highlights the critical role of these residues in bilirubin binding.
(§5) In HEK293T cells, proteins tagged with green fluorescent protein (GFP) were expressed. The cells were lysed using the M‐PER Mammalian Protein Extraction Reagent (cat. no. 78505, Thermo Scientific) supplemented with protease inhibitors. Lysates were centrifuged at 12000 × g for 15 min at 4 °C, and the supernatant containing proteins was diluted 10‐fold with 1x PBST. Protein fluorescence intensity and solubility were assessed using capillary scanning at 60% LED power.
(§6) For the binding assay, the proteins were mixed with ligands and incubated for 15 min at room temperature before being loaded into Monolith NT.115 Capillaries or NT.115 Premium Capillaries (NanoTemper Technologies, MO‐K022 and MO‐K025). MST measurements were performed on a Monolith NT.115 instrument (NanoTemper Technologies) at 25 °C. Instrument parameters included no more than 80% excitation power and a medium MST power. Data analysis was conducted using the MO. Affinity Analysis software (NanoTemper Technologies).

[2] = biological target: T3, point mutations of WNK1 (1–491) (Homo sapiens, UniProt Q9H4A3, K351A); assay: MST, EGFP-tagged point mutations of WNK1 (1–491); assay type: binding; conditions: WNK1-N K351A
T3 construct: EGFP‐tagged point mutations of WNK1 (1–491) (15 min) in lysates; expressed in transfected cells; host or cells: HEK293T
Description: as §4, §5, §6

[3] = biological target: T4, point mutations of WNK1 (1–491) (Homo sapiens, UniProt Q9H4A3, M304A); assay: MST, EGFP-tagged point mutations of WNK1 (1–491); assay type: binding; conditions: WNK1-N M304A
T4 construct: EGFP‐tagged point mutations of WNK1 (1–491) (15 min) in lysates; expressed in transfected cells; host or cells: HEK293T
Description: as §4, §5, §6

[4] = biological target: T5, point mutations of WNK1 (1–491) (Homo sapiens, UniProt Q9H4A3, T301A); assay: MST, EGFP-tagged point mutations of WNK1 (1–491); assay type: binding; conditions: WNK1-N T301A
T5 construct: EGFP‐tagged point mutations of WNK1 (1–491) (15 min) in lysates; expressed in transfected cells; host or cells: HEK293T
Description: as §4, §5, §6

hWNK1 (181–507) = biological target: T6, hWNK1 (181–507) (Homo sapiens, UniProt Q9H4A3); assay: ADP-Glo kinase assay, purified hWNK1 kinase domain; assay type: biochemical; conditions: ADP production, luminescence normalized to reactions lacking bilirubin; 12 serial dilutions from 20 µM; read-out: EC50, activation of WNK1 kinase activity
T6 construct: the amino acid fragment 181–507 of human WNK1 (hWNK1)
Description: (§7) Given the binding of bilirubin to the kinase domain of WNK1, we aimed to explore its effect on WNK1 with a particular focus on its kinase activity. To evaluate WNK1 kinase activity, we utilized an in vitro kinase enzyme assay system to quantify ADP production by the amino acid fragment 181–507 of human WNK1 (hWNK1) over a range of bilirubin concentrations. The kinase‐dead WNK1 mutant hWNK1(181–507 S382A) served as a negative control (Figure S10, Supporting Information).^[ [30] ^]
(§8) WNK1 kinase activity was measured using the ADP‐Glo Kinase Assay (Promega, Cat. V9101) following the manufacturer's instructions. Purified protein was incubated with bilirubin across a range of 12 serially diluted concentrations, beginning at a maximum concentration of 20 µM. After the incubation period, luminescence was recorded using a microplate reader (Synergy H1M, BioTek)

full-length hWNK1 = biological target: T7, full-length hWNK1 (Homo sapiens, UniProt Q9H4A3); assay: MicroScale Thermophoresis (MST), EGFP-tagged full-length WNK1 in HEK293T cell lysates; assay type: binding; conditions: 15 min incubation, lysates of EGFP-WNK1 expressing HEK293T cells
T7 construct: We overexpressed full‐length WNK1 fused with Green Fluorescent Protein (GFP); expressed in transfected cells; host or cells: HEK293T
Procedure: as §1, §2, §3

PPARα = biological target: PPARα; parameters: method as in PMID 37390966, PMID 34067839; conditions: liver and adipose tissue; cited from earlier work
WNK1 (1–491) = biological target: T8, WNK1 (1–491) (Homo sapiens, UniProt Q9H4A3); assay: MST, EGFP-tagged WNK1 truncation 1–491; assay type: binding; conditions: WNK1 1–491, 15 min, HEK293T lysates
T8 construct: different lengths of WNK1 truncations (1–491, 1–190, 191–491, 491–2382); expressed in transfected cells; host or cells: HEK293T
Description: To further validate these findings, we constructed GFP‐tagged fusion proteins with different lengths of WNK1 truncations (1–491, 1–190, 191–491, 491–2382) based on the WNK1 domains (Figure 3E) and analyzed their binding capacity with bilirubin using MST analysis.^[ [29] ^]
as §2
as §5, with “Protein fluorescence intensity and solubility were assessed using capillary scanning at 60% LED power.” left out

TRPM2 channels = tested on: TRPM2 channels; parameters: method as in PMID 36921602; conditions: activation of TRPM2 channels; cited from earlier work
hWNK1(181–507 S382A) = biological target: T9, hWNK1(181–507 S382A) (Homo sapiens, UniProt Q9H4A3, S382A); assay: ADP-Glo kinase assay, kinase-dead WNK1 mutant control; assay type: biochemical; conditions: negative control
T9 construct: The kinase‐dead WNK1 mutant hWNK1(181–507 S382A) served as a negative control
Description: as §7, §8

UnaG = biological target: UnaG; parameters: method as in PMID 23768684; conditions: modified FABP family member derived from eel; cited from earlier work

T2 sequence (Q9H4A3 1-491 F356A): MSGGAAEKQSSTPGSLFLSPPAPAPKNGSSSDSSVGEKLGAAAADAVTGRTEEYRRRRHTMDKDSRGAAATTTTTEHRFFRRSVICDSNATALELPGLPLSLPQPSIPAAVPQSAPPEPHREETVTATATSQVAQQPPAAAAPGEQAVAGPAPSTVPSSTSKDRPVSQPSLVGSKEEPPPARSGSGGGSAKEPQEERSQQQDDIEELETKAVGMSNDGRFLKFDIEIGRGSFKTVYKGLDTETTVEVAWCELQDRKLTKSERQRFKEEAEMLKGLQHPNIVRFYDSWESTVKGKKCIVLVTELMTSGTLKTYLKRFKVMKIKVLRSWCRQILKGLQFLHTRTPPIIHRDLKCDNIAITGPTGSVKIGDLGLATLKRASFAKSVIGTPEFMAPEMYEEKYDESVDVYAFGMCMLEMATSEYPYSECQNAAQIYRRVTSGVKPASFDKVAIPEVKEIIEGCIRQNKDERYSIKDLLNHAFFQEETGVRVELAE
T5 sequence (Q9H4A3 1-491 T301A): as the sequence (Q9H4A3 1-491 F356A) above, with T301A, A356F counted along it
T8 sequence (Q9H4A3 1-491): as the sequence (Q9H4A3 1-491 F356A) above, with A356F counted along it
T6 sequence (Q9H4A3 181-507): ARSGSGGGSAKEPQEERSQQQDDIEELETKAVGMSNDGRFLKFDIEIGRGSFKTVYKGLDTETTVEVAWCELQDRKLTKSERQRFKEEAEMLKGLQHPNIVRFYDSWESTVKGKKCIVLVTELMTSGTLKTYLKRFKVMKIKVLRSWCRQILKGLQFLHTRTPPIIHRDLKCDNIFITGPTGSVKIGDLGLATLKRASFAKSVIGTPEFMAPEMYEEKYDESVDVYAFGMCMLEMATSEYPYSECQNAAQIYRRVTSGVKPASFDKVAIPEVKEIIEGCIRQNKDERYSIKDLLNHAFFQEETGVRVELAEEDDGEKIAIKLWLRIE
T1 sequence (Q9BYP7 whole entry): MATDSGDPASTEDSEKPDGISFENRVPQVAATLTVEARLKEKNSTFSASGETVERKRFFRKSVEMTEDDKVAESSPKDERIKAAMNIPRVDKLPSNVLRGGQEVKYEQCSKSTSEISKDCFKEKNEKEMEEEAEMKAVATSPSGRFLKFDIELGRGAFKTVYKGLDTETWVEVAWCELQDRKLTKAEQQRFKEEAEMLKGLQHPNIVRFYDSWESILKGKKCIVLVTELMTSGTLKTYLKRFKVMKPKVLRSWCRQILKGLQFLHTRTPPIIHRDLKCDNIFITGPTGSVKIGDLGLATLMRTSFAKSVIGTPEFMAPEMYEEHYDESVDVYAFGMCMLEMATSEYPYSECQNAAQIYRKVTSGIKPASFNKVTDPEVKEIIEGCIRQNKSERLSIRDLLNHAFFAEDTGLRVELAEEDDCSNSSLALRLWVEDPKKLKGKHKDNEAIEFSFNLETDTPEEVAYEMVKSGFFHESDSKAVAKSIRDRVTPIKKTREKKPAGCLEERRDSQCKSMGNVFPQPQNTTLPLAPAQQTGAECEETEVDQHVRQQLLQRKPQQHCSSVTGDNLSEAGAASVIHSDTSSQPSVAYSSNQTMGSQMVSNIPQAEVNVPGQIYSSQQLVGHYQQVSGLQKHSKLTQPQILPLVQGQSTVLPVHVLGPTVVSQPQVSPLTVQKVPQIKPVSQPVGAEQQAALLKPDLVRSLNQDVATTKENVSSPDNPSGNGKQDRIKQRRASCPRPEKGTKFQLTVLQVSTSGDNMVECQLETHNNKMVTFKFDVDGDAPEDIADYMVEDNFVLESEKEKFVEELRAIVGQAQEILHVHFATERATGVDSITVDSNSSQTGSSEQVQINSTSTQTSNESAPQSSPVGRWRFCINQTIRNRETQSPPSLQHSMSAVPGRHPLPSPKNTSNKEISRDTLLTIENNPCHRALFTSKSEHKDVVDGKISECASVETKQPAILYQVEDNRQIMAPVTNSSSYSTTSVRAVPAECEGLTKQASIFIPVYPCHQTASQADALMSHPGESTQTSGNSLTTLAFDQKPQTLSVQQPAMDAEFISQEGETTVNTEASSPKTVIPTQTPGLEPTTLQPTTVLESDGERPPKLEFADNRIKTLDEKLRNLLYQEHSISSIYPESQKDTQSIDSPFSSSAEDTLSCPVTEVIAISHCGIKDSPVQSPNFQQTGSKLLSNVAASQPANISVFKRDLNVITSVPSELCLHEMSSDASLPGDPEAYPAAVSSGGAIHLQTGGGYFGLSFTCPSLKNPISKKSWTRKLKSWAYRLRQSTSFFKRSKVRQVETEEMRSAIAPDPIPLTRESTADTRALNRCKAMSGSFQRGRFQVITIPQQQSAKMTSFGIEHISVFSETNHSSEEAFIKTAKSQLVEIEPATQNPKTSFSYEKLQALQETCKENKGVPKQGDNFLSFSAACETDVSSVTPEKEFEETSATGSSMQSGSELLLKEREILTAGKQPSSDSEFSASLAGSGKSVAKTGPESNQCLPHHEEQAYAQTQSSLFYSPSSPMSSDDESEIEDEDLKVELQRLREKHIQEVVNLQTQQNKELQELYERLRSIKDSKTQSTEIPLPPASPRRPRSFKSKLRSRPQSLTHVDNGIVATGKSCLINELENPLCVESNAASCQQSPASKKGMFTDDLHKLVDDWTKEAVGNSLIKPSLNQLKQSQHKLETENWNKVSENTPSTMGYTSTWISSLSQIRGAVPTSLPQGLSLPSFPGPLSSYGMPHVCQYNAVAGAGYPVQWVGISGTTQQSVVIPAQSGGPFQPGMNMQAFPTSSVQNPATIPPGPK
T4 sequence (Q9H4A3 1-491 M304A): as the sequence (Q9H4A3 1-491 F356A) above, with M304A, A356F counted along it
T3 sequence (Q9H4A3 1-491 K351A): as the sequence (Q9H4A3 1-491 F356A) above, with K351A, A356F counted along it
T9 sequence (Q9H4A3 181-507 S382A): as the sequence (Q9H4A3 181-507) above, with S202A counted along it

For C=CC1=C(C)/C(=C/c2[nH]c(Cc3[nH]c(/C=C4\NC(=O)C(C)=C4C=C)c(C)c3CCC(=O)O)c(CCC(=O)O)c2C)NC1=O [bilirubin, Bilirubin], the pKd (hWNK3) was 6.12, the “binding to F356A mutant” value [1] was “reduced binding affinity” and the “binding to K351A mutant” value [2] was “reduced binding affinity”. The “binding to M304A mutant” value [3] was “reduced binding affinity”, the “binding to T301A mutant” value [4] was “unable to bind” and the pEC50 (hWNK1 (181–507)) was 6.05. For the same molecule, the pKd (full-length hWNK1) was 7.17, the pKd (PPARα) was 5.29 and the pKd (WNK1 (1–491)) was 6.50. For the same molecule, the pEC50 (TRPM2 channels) was 5.72, the “effect on kinase activity of kinase-dead mutant” value (hWNK1(181–507 S382A)) was “no effect” and the pKd (UnaG) was 10.01.
